One experiment has as its target T1, CDK4/CyclinD3 (Homo sapiens, UniProt P11802).
T1 construct: purchased Wuxi Biortus Biosciences Co. Ltd
Briefly: In-vitro kinase inhibitory activity, CDK4/CyclinD3 (Caliper EZ Reader II mobility shift). In kind it is biochemical. The conditions noted are these: CDK4/CyclinD3 20 nM, ATP 2 mM, Peptide 1 μM, 27° C., 180 min; read-out: IC50 (half maximal inhibitory concentration, nM) CDK4. Summed up:
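Compound was preincubated 10 min with CDK4/CyclinD3 in Tris pH 8.0 with 5 mM MgCl2, then peptide substrate and ATP were added for 180 min at 27 °C, and the reaction was stopped with EDTA. Substrate and product were separated by mobility shift. IC50 comes from non-linear dose-response fits, with at least two replicates.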

A further experiment deals with T2, CDK6/CyclinD3 (Homo sapiens, UniProt Q00534).
T2 construct: purchased Wuxi Biortus Biosciences Co. Ltd
T2 sequence (Q00534 whole entry, species assumed): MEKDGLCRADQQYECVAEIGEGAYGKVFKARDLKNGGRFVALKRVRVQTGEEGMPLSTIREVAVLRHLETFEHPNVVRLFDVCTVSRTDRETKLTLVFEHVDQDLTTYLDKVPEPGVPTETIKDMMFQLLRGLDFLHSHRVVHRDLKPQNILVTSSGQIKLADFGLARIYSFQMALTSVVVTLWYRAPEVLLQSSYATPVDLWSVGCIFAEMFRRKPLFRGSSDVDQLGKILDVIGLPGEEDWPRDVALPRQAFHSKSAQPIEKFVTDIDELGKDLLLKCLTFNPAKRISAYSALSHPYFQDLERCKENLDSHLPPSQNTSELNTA
T2 sequence (P30281 whole entry partner, species assumed): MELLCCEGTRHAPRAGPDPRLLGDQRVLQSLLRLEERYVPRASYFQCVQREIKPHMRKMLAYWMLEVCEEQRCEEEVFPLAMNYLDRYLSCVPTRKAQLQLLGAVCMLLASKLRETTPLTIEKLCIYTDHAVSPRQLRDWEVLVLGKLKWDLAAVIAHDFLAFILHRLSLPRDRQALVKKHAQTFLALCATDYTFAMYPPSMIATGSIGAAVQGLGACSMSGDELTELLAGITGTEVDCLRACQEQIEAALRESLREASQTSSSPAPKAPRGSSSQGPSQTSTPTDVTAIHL
Briefly: In-vitro kinase inhibitory activity, CDK6/CyclinD3 (Caliper EZ Reader II mobility shift). The settings on record: CDK6/CyclinD3 20 nM, ATP 2 mM, Peptide 1 μM, 27° C., 120 min; read-out: IC50 (half maximal inhibitory concentration, nM) CDK6. In kind it is biochemical. A digest of the protocol: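 Compound was preincubated 10 min with CDK6/CyclinD3, then peptide substrate plus ATP was added and the reaction ran 120 min at 27° C. before EDTA stop. Substrate and phosphorylated product were separated by microfluidic mobility shift, at least two replicates. IC50 from non-linear regression of dose-response curves.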

Another experiment concerns the target CDK2 (Homo sapiens, UniProt P24941). Briefly: In-vitro kinase inhibitory activity, CDK2 (selectivity). In kind it is biochemical. The conditions noted are these: read-out: IC50 (half maximal inhibitory concentration, nM) CDK2.
A further experiment concerns the target CDK9 (Homo sapiens, UniProt P50750). Put plainly: In-vitro kinase inhibitory activity, CDK9 (selectivity). The conditions noted are these: read-out: IC50 (half maximal inhibitory concentration, nM) CDK9. In kind it is biochemical.
The next experiment deals with T3, CRBN (Homo sapiens, UniProt Q96SW2).
T3 construct: purchased Wuxi Biortus Biosciences Co. Ltd
T3 sequence (Q96SW2 whole entry, species assumed): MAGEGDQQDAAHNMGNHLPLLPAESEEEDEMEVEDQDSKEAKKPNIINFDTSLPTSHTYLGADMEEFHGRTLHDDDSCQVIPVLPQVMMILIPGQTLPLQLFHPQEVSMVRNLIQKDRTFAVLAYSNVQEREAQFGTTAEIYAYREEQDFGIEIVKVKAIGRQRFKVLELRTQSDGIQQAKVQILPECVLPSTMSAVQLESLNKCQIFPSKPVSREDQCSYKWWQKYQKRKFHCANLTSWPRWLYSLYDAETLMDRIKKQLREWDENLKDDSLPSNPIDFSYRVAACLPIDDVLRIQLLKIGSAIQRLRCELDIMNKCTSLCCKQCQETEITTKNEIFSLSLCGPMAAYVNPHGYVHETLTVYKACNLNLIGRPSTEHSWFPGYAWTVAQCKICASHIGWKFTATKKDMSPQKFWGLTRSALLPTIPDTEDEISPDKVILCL
Put plainly: In-vitro inhibition assay of CRBN activity (fluorescence polarization, Cy5-Thalidomide). In kind it is binding. The settings on record: Cy5-Thalidomide 10 nM, CRBN 180 nM, 27° C., 60 min. As to the method:
The final volume for assay was 20 μL, and the reaction temperature was 27° C. CRBN was produced by Wuxi Biortus Biosciences Co. Ltd. The concentration of the kinase was determined by the optimization experiment, and the kinase was diluted with an assay buffer (50 mM Tris, pH 7.5, 100 mM NaCl, and 0.01% Pluronic acid) to obtain a corresponding kinase solution (2× concentration). The compound was dissolved in dimethyl sulfoxide (DMSO) to reach a concentration of 10 mM. […] 5 μL of the test compound solution was mixed with 5 μL of the substrate solution, and 10 μL of the kinase solution was added to the mixture. The mixture was incubated at 27° C. for 60 min. Each assay was conducted in at least two replicates. […].
The final concentrations of the reagents in the assay were as follows. […] The data of fluorescence polarization assay were read on TECAN infinite M1000. Data were calculated by using GraphPad Prism version 6.0, and IC50 values were obtained by adjusting the non-linear regression models of the dose response curves.

Experiment [1] relates to human colon cancer COLO205 cells. Put plainly: Growth inhibition of tumor cells cultured in vitro, CellTiter-Glo, COLO205. In kind it is cell-based. The conditions noted are these: for IC50: COLO205, 72 h, CellTiter-Glo; for inhibitory effect on human colon cancer COLO205 cells (in words): summary of the table. Summed up: (§1)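 Cells were seeded at 6000/well, COLO205 in RPMI-1640 with 10% FBS and MCF-7 in MEM with 10% FBS plus 0.01 mg/mL insulin, and grown 24 h before dosing. Compound dilutions in medium (10 to 0.0015 μM/L before addition, DMSO <0.1%) were tested in triplicate for 72 h at 37° C. IC50 was derived from CellTiter-Glo luminescence.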
(In general: ATP-based viability assays read luminescence as a measure of living cells.)

Experiment [2] deals with human breast cancer MCF-7 cells. Put plainly: Growth inhibition of tumor cells cultured in vitro, CellTiter-Glo, MCF-7. In kind it is cell-based. The conditions noted are these: MCF-7, 72 h, CellTiter-Glo. A digest of the protocol:
as §1

“Also recorded” adds a separate entry of the source. A value given as a limit tells only on which side of the number the result lay.

Sequence of CDK9 (P50750 whole entry, species assumed): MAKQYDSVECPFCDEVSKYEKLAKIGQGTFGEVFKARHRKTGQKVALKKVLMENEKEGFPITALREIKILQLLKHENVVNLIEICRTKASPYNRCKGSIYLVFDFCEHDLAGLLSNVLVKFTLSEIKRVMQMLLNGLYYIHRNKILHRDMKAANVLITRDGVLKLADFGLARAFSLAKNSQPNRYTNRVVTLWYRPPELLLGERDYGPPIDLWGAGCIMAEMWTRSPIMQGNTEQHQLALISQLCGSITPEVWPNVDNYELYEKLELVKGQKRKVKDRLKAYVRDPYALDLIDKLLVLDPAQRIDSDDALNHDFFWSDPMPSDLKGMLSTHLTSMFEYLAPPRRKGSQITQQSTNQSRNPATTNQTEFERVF
Sequence of CDK9 (O60563 whole entry partner, species assumed): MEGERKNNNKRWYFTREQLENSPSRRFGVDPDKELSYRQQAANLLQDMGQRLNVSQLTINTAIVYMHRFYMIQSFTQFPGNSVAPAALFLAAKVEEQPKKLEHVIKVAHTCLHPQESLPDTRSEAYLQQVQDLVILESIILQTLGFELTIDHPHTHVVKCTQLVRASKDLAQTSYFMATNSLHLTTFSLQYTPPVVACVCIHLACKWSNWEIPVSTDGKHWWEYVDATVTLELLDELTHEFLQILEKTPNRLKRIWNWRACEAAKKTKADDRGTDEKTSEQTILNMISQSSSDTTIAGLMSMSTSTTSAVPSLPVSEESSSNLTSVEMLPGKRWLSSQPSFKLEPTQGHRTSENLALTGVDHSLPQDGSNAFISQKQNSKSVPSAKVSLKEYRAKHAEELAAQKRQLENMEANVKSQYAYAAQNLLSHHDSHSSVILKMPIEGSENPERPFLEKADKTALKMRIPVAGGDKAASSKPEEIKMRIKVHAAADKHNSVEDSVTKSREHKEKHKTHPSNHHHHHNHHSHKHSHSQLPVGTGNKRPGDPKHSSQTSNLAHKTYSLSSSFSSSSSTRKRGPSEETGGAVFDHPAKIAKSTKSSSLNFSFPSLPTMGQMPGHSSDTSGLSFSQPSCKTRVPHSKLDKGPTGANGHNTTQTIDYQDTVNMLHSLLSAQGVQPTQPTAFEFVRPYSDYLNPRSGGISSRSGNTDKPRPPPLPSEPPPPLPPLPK
T1 sequence (P11802 whole entry, species assumed): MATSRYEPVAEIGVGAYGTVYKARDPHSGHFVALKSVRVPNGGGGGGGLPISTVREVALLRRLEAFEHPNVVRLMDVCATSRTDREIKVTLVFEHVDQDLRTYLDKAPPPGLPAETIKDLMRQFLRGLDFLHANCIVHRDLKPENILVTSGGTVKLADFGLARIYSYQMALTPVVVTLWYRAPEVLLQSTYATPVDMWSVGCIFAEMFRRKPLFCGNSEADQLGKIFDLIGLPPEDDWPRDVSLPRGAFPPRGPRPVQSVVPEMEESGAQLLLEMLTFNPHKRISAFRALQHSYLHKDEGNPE
T1 sequence (P30281 whole entry partner, species assumed): as the sequence (P30281 whole entry partner, species assumed) above

With `CC(=O)c1c(C)c2cnc(Nc3ccc(N4CCN(CCN5CCN(c6ccc7c(c6)CN(C6CCC(=O)NC6=O)C7=O)CC5)CC4)cn3)nc2n(C2CCCC2)c1=O.Cl.Cl` (single isomer, unassigned) [Compound 2, 3-(5-(4-(2-(4-(6-((6-acetyl-8-cyclopentyl-5-methyl-7-oxo-7,8-dihydropyrido[2,3-d]pyrimidin-2-yl)amino)pyridin-3-yl)piperazin-1-yl)ethyl)piperazin-1-yl)-1-oxoisoindolin-2-yl)piperidine-2,6-dione dihydrochloride], the IC50 at CDK4/CyclinD3 was 36.8 nM; on CDK6/CyclinD3, 22 nM; on CDK2, above 10000 nM; on CDK9, 8710 nM; against CRBN, 3000 nM; in experiment [1] (dihydrochloride), 25.5 nM. Moreover, the IC50 in experiment [2] was above 10000 nM. Further, the “inhibitory effect on human colon cancer COLO205 cells (in words)” value in experiment [1] (dihydrochloride) is given as “relatively good inhibitory effects; also recorded: the best inhibitory effect”.
As to `CC(=O)c1c(C)c2cnc(Nc3ccc(N4CCN(CCN5CCC(C(=O)N6CCN(c7ccc8c(c7)CN([C@H]7CCC(=O)NC7=O)C8=O)CC6)CC5)CC4)cn3)nc2n(C2CCCC2)c1=O` [Compound 8, (S)-3-(5-(4-(1-(2-(4-(6-((6-acetyl-8-cyclopentyl-5-methyl-7-oxo-7,8-dihydropyrido[2,3-d]pyrimidin-2-yl)amino)pyridin-3-yl)piperazin-1-yl)ethyl)piperidin-4-carbonyl)piperazin-1-yl)-1-oxoisoindolin-2-yl)piperidine-2,6-dione], the IC50 on CDK4/CyclinD3 was 19.9 nM; at CDK6/CyclinD3 it was 16.1 nM; at CDK2, 9000 nM; at CDK9, 3810 nM; at CRBN, 1210 nM; in experiment [1] (Homo sapiens, COLO 205, 72 h), 96.2 nM. The compound also registered an IC50 in experiment [2] (Homo sapiens, MCF7, 72 h) of 821 nM. Moreover, the “inhibitory effect on human colon cancer COLO205 cells (in words)” value in experiment [1] is “relatively good inhibitory effects”.

Source of the values: patent publication US11485735B2, “Selective CDK4/6 inhibitor and preparation thereof” (Wuxi Shuangliang Biotechnology Co., Ltd., priority 2019, dated 2022).
